What was measured:
Assay type in all cases: biochemical
hemoglobin [1] = molecular target: T1, hemoglobin (Homo sapiens, UniProt P68871+P69905); test: Resonance Raman spectroscopy: percentage of high oxygen affinity "R" state of oxygenated hemoglobin treated with compounds; details: varying mole ratio to Hb tetramer, 532 nm excitation, oxygen atmosphere
Excerpt: In order to evaluate the effect of the compound of Formula I on stabilizing the oxygenated hemoglobin in the low oxygen affinity “T” state, compounds including 2,3-bisphosphoglycerate (group A0), Z-butylidenephthalide (group A1), Z-ligustilide (group A2), senkyunolide A (group A3), senkyunolide H (group A4) and senkyunolide I (group A5) are mixed with hemoglobin as a function of their mole ratio to hemoglobin, followed by the resonance Raman spectroscopy measurements at 532 nm excitation wavelength under the oxygen atmosphere. The percentages of the high oxygen affinity “R” state for hemoglobin treated with 2,3-bisphosphoglycerate (shown in FIG. 2a, as reference) and various phthalide phyto-compounds (shown in FIGS. 2b to 2f) are analyzed from the resonance Raman spectroscopy measurements. In more specific, the percentage of high oxygen affinity “R” state for each treated hemoglobin was obtained by fitting a simulated spectrum comprised of adjustable weighing factors of the T and R states of pure hemoglobin to the obtained resonance Raman spectrum of treated hemoglobin. […]

[2] = molecular target: fetal hemoglobin (α2γ2, HbF) (Homo sapiens, UniProt P69905); test: Resonance Raman spectroscopy: percentage of "R" state of oxygenated fetal hemoglobin treated with compounds; details: oxygen atmosphere
Sequence of fetal hemoglobin (α2γ2, HbF) (P69905 2-142 limits assumed): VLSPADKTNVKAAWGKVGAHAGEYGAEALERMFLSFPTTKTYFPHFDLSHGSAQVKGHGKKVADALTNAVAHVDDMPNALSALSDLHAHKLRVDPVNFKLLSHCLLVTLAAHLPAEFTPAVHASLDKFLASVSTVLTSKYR
Sequence of fetal hemoglobin (α2γ2, HbF) (P69892 2-147 partner limits assumed): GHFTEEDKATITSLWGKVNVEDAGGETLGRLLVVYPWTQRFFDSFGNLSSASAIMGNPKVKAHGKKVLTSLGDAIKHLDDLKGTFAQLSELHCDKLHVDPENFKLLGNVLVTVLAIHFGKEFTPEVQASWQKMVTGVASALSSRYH
Excerpt: In order to evaluate the effect of the compound of phthalides on stabilizing the oxygenated hemoglobin variants in the low oxygen affinity “T” state, compounds including 2,3-bisphosphoglycerate (group A0), Z-butylidenephthalide (group A1), Z-ligustilide (group A2), senkyunolide A (group A3), senkyunolide H (group A4) and senkyunolide I (group A5) are mixed with fetal hemoglobin (α2γ2, HbF) as a representative hemoglobin variant which is also a potential hemoglobin-based blood substitute, followed by the resonance Raman spectroscopy measurements under the oxygen atmosphere. The percentages of the high oxygen affinity “R” state of fetal hemoglobin treated with 2,3-bisphosphoglycerate (shown in FIG. 3a) and various phthalide phyto-compounds (shown in FIGS. 3b to 3f) are also analyzed from the resonance Raman spectroscopy measurements, following the same spectral analysis procedures as that of normal hemoglobin.

hemoglobin [3] = molecular target: T1, hemoglobin; test: Oxygen equilibrium curve (OEC) measurement, P50 of treated hemoglobin
Excerpt: FIG. 4a is a diagram illustrating the oxygen equilibrium curve (OEC) of hemoglobin treated with 2,3-bisphosphoglycerate with a molar ratio to Hb of 1.0 (dash black curve). The OEC of pure hemoglobin (solid black curve) is also shown as the reference. The P50 value derived from the OEC for pure hemoglobin and for Hb treated with 2,3-bisphosphoglycerate are 12.6 and 16.4±1 mmHg, respectively.
To evaluate the effect of the compound of phthalides on reducing the oxygen affinity and thus promoting the oxygen release, the oxygen equilibrium curves (OEC) for hemoglobin treated with 2,3-bisphosphoglycerate (solid black curve in FIG. 4a) and Z-butylidenephthalide (Z-butylidenephthalide-to-Hb molar ratio of: 0.2, solid black curve; 0.5, dash-dot black curve; 0.8, dot black curve in FIG. 4b), are measured in comparison with that of pure hemoglobin (dash black curves in FIGS. 4a and 4b).
From the oxygen equilibrium measurements, the P50 values of hemoglobin treated compounds, including Z-butylidenephthalide, Z-ligustilide and senkyunolide A are obtained, as shown in FIGS. 5a to 5c. P50, defined as the oxygen partial pressure required for 50% of Hb to become oxygenated or deoxygenated, is a direct measure of oxygen affinity for hemoglobin, which increases with decreasing oxygen affinity.

[4] = effector-to-Hb mole ratio of 0.8 (Level II), pure hemoglobin 12.6±1

T1 sequence (P69905 2-142 limits assumed): as the sequence (P69905 2-142 limits assumed) above
T1 sequence (P68871 2-147 limits assumed): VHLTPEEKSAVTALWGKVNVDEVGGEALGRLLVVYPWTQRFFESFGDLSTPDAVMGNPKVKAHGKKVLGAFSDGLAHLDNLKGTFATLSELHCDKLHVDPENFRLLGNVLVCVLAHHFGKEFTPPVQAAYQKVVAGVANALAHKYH

"R" state suppression efficiency (hemoglobin [1])	P50 of hemoglobin treated with compound (hemoglobin [3]; molar ratio to Hb of 1.0, pure hemoglobin 12.6) [mmHg]	Compound	effect on relative ratio of high oxygen affinity "R" state of fetal hemoglobin [2]	P50 of hemoglobin treated with compound (hemoglobin [3]; [4]) [mmHg]
about 20%	16.4±1	O=C(O)C(COP(=O)(O)O)OP(=O)(O)O (centres unmarked) [2,3-bisphosphoglycerate, reference compound]	no effect	
		CCC/C=C1\OC(=O)c2ccccc21 [Z-butylidenephthalide]	can stabilize the low oxygen affinity “T” state	17.4
		CCC/C=C1\OC(=O)C2=C1CCC=C2 [Z-ligustilide]	can stabilize the low oxygen affinity “T” state	15.9
		CCCC[C@@H]1OC(=O)C2=C1CCC=C2 [senkyunolide A]	can stabilize the low oxygen affinity “T” state	
		CCC/C=C1\OC(=O)C2=C1CC[C@@H](O)[C@H]2O [senkyunolide H]	can stabilize the low oxygen affinity “T” state	
		CCC/C=C1\OC(=O)C2=C1CC[C@@H](O)[C@@H]2O [senkyunolide I]	can stabilize the low oxygen affinity “T” state	15.2±1

From patent US10047063B2, “Method for improving the oxygen-releasing ability of hemoglobin to organs or peripheral tissues in human bodies and a medication thereof” (NATIONAL SUN YAT-SEN UNIVERSITY, priority 2014, dated 2018)
